Test results taken from US8188059B2, “Compounds and methods for modulating expression of GCGR” (Isis Pharmaceuticals, Inc., priority 2006, dated 2012).
Strand notation (5' to 3'): a small letter for the sugar, then the base; units joined by * are phosphorothioate-linked, units joined directly phosphodiester-linked; [ ] holds rarer units or linkages, { } end groups; capitals alone tell only the bases. e = 2'-O-(2-methoxyethyl) (MOE); [5mC] = 5-methylcytosine; d = 2'-deoxy (DNA)

Assay: ALT & AST levels, C57/BL6 mice (Example 4, Table 32)
Format: in vivo, mouse
Settings: for ALT Pre-Bleed / AST Pre-Bleed: pre-treatment bleed; for ALT Post-Bleed / AST Post-Bleed: 48 hours following injection
Description: Eight-week old male C57/BL6 mice (Jackson Laboratory, Bar Harbor, Me.) were administered a single dose of GCGR oligonucleotide by intraperitoneal injection at a concentration of […]. Each dose group consisted of four animals. Shown in Table 31 are the sequences, motifs and conjugates of the GCGR antisense compounds used in this study. Bolded residues indicate 2′-O-methoxyethyl (2′-MOE) moieties. All compounds comprise phosphorothioate internucleoside linkages throughout and each cytosine is replaced with 5-methylcytosine. ISIS 386626, ISIS 386627 and ISIS 386628 further comprise a C16 conjugate group attached to the 2′-O position of the sugar via a diamide linkage (2′-OCH2C(═O)N(H)(CH2)4N(H)C(═O)—(CH2)15CH3). GCGR antisense compounds target published GCGR sequences, including Genbank® Accession No. BC031885.1 (SEQ ID NO: 7).
Mice were sacrificed 48 hours following injection to determine serum transaminase levels (Table 32); liver, white adipose tissue (WAT), spleen and kidney weight (Table 33); cholesterol, triglyceride and glucose levels (Table 34); GCGR mRNA levels (Tables 35-41); and full-length and total oligonucleotide concentration in liver and kidney (Table 42). Endpoints were assessed using methods described herein and well known to those of ordinary skill in the art. Data is included from a pre-treatment bleed (Pre-Bleed) and post-treatment bleed (Post-Bleed).

For “148364 (antisense eT*eG*e[5mC]*eA*e[5mC]*dT*dT*dT*dG*dT*dG*dG*dT*dA*d[5mC]*e[5mC]*eA*eA*eG*eG) [compound 148364]”, the “ALT Pre-Bleed” value (6.25 mg/kg dose group) was 28 IU/L, the “AST Pre-Bleed” value (6.25 mg/kg dose group) was 47 IU/L and the “ALT Pre-Bleed” value (12.5 mg/kg dose group) was 23 IU/L. For the same substance, the “AST Pre-Bleed” value (12.5 mg/kg dose group) was 44 IU/L, the “ALT Pre-Bleed” value (25 mg/kg dose group) was 26 IU/L and the “AST Pre-Bleed” value (25 mg/kg dose group) was 42 IU/L. The “ALT Pre-Bleed” value (50 mg/kg dose group) was 24 IU/L, the “AST Pre-Bleed” value (50 mg/kg dose group) was 40 IU/L and the “ALT Post-Bleed” value (single i.p. dose 6.25 mg/kg) was 34 IU/L. The “AST Post-Bleed” value (single i.p. dose 6.25 mg/kg) was 76 IU/L, the “ALT Post-Bleed” value (single i.p. dose 12.5 mg/kg) was 32 IU/L and the “AST Post-Bleed” value (single i.p. dose 12.5 mg/kg) was 69 IU/L. For the same substance, the “ALT Post-Bleed” value (single i.p. dose 25 mg/kg) was 35 IU/L, the “AST Post-Bleed” value (single i.p. dose 25 mg/kg) was 87 IU/L and the “ALT Post-Bleed” value (single i.p. dose 50 mg/kg) was 40 IU/L. The “AST Post-Bleed” value (single i.p. dose 50 mg/kg) was 115 IU/L.
